Experiments:
N-type calcium channel [1] = target: T1, N-type calcium channel (Homo sapiens, UniProt Q00975); assay: Antagonistic activity on N-type calcium channel (fluorescence dye method); format: cell-based
N-type calcium channel [2] = target: T1, N-type calcium channel; assay: N-type calcium channel antagonistic activity, changed procedure (fluorescence dye method, calculated from inhibition rates); format: cell-based; details: IMR-32 cells, 60 mM KCl stimulation, Table 3, read-out: N-type inhibition pIC50 (converted)

T1 sequence (Q00975 whole entry): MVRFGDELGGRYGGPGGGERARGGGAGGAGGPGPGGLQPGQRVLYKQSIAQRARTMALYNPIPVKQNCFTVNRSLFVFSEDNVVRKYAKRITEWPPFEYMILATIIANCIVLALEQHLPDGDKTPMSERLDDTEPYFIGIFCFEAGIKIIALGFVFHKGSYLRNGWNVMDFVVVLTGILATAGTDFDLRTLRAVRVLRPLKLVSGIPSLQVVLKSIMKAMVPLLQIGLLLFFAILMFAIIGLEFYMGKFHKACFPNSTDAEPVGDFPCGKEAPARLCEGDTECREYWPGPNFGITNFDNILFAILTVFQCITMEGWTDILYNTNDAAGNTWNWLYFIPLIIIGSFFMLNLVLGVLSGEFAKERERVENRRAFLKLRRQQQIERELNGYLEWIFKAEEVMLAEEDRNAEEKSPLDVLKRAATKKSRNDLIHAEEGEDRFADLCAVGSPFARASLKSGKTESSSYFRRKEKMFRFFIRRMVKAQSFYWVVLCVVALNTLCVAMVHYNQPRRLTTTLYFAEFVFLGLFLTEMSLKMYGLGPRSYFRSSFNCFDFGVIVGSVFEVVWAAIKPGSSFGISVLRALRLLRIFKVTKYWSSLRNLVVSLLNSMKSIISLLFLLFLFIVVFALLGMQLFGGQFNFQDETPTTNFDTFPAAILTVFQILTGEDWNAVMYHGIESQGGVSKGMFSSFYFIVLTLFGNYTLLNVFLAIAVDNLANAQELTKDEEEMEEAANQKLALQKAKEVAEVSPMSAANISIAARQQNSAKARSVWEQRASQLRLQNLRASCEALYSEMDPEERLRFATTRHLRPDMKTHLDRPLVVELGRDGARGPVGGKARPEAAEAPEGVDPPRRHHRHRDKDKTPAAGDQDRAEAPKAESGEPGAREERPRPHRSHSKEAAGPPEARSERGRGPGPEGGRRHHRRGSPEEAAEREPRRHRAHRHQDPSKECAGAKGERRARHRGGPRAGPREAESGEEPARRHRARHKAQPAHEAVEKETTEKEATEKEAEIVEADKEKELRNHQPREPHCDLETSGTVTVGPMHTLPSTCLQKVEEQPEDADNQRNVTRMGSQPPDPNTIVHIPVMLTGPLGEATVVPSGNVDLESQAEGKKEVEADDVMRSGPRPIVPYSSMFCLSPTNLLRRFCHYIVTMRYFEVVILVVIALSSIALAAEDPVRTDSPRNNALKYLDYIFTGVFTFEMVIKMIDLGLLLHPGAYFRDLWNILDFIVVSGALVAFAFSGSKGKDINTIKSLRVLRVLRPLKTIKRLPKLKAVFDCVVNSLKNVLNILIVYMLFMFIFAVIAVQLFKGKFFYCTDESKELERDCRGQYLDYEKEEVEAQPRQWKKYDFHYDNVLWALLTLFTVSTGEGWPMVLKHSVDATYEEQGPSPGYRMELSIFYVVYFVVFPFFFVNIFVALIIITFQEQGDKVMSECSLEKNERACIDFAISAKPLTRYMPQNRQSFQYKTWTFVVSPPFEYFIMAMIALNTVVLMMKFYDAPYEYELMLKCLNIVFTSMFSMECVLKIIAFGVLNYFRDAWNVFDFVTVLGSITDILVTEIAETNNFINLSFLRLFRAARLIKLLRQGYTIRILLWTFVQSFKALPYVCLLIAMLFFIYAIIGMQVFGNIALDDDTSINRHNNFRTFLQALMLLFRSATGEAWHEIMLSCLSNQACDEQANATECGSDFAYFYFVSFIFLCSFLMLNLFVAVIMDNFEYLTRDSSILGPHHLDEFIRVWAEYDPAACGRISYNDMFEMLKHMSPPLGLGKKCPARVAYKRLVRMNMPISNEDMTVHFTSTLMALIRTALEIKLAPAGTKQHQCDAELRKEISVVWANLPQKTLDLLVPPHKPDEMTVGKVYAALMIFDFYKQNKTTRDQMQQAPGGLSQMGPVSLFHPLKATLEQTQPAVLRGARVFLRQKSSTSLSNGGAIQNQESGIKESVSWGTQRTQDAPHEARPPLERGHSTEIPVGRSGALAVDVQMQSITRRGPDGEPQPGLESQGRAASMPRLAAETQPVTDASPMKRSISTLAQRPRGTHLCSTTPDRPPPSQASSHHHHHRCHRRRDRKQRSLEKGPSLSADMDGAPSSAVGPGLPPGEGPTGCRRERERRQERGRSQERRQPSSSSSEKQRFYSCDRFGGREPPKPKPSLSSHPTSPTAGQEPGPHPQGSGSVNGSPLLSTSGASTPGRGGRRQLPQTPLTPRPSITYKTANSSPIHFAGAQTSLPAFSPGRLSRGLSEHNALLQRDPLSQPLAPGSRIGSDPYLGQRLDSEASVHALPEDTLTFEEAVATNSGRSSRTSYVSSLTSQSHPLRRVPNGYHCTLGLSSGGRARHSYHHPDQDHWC
T1 sequence (P54284 whole entry partner): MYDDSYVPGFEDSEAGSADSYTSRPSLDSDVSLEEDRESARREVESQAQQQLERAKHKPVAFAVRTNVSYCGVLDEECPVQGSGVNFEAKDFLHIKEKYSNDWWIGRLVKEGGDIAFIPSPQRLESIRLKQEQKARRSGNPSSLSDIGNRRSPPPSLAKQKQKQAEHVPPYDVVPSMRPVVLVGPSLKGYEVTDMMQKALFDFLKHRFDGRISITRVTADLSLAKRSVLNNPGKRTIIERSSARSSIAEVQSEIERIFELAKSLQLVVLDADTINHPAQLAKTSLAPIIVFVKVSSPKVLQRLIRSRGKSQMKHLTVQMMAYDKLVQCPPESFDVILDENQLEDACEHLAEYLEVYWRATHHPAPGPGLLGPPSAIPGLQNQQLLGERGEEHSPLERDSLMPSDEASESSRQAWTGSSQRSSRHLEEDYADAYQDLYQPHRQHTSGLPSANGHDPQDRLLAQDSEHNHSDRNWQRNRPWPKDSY
T1 sequence (P54289 25-956 partner limits assumed): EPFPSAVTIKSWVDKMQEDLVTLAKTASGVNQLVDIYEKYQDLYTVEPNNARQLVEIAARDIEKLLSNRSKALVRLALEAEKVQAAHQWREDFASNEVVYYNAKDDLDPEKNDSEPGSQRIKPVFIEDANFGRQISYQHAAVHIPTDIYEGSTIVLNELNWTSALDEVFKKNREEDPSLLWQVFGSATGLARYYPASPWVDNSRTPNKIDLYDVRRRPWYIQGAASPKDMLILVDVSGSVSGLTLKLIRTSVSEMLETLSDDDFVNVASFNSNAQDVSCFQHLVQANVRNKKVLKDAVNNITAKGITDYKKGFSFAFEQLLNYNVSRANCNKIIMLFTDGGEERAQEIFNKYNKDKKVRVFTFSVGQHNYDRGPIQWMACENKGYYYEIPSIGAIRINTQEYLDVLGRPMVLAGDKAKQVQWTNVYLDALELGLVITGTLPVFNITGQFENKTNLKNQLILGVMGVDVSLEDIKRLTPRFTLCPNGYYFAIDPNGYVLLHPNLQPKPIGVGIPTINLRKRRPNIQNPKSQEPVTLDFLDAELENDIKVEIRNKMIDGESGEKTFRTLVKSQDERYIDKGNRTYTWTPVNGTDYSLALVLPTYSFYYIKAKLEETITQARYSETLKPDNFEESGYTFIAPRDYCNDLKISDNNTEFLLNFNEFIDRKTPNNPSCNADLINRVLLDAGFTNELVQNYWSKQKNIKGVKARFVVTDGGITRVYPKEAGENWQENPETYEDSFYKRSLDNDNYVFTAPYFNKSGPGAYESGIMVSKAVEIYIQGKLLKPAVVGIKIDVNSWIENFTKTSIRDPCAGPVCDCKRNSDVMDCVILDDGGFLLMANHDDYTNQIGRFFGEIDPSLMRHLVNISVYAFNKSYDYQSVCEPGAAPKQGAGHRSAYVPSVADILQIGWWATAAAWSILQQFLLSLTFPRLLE
T1 sequence (P54289 957-1103 partner limits assumed): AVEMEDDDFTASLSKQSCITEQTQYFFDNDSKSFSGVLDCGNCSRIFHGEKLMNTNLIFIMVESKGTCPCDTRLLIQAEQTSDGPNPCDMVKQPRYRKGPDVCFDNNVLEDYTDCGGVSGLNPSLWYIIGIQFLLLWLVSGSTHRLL

| SMILES | IC50 (N-type calcium channel [1]) [µM] | IC50 (N-type calcium channel [2]) [µM] |
| --- | --- | --- |
| O=C(NCCC(c1ccccc1)c1ccccc1)C1=C(COCCC2CCCCC2)NC(c2ccccc2)=NC1c1cccc(Cl)c1 (stereo not shown) [Example 1, 4-(3-chlorophenyl)-6-[(2-cyclohexylethoxy)methyl]-5-(3,3-diphenylpropylcarbamoyl)-2-phenyl-1,4-dihydropyrimidine] | 1.26 | 7.94 |
| O=C(NC/C=C/c1ccccc1)C1=C(COCCC2CCCCC2)NC(c2ccccc2)=NC1c1cccc(Cl)c1 (stereo not shown) [Example 2, 4-(3-chlorophenyl)-6-[(2-cyclohexylethoxy)methyl]-2-phenyl-5-[(3-phenyl-2-propene-1-yl)-carbamoyl]-1,4-dihydropyrimidine] | 5.89 | – |
| CC1=C(C(=O)NCCC(c2ccccc2)c2ccccc2)C(c2cccc(Cl)c2)NC(=O)N1 (stereo not shown) [Example 3, 4-(3-chlorophenyl)-6-methyl-2-oxo-1,2,3,4-tetrahydropyrimidine-5-carboxylic acid (3,3-diphenylpropyl)amide] | 0.891 | 2.51 |
| COCC1=C(C(=O)NCCCc2ccccc2)C(c2cccc(Cl)c2)NC(=O)N1 (stereo not shown) [Example 6, 4-(3-chlorophenyl)-6-methoxymethyl-2-oxo-1,2,3,4-tetrahydropyrimidine-5-carboxylic acid (3-phenylpropyl)amide] | 0.977 | 5.01 |
| [N-]=[N+]=NCCOCC1=C(C(=O)NCCC(c2ccccc2)c2ccccc2)C(c2cccc(Cl)c2)NC(=O)N1 (stereo not shown) [Example 15, 6-(2-azidoethoxymethyl)-4-(3-chlorophenyl)-2-oxo-1,2,3,4-tetrahydropyrimidine-5-carboxylic acid (3,3-diphenylpropyl)amide] | – | 2.51 |
| CCOC(=O)CN1C(=O)NC(C)=C(C(=O)NC/C=C/c2ccccc2)C1c1cccc(Cl)c1 (stereo not shown) [Example 45, ethyl [6-(3-chlorophenyl)-4-methyl-2-oxo-5-(3-phenyl-2-propene-1-ylcarbamoyl)-3,6-dihydro-2H-pyrimidine-1-yl]acetate] | – | 3.98 |
| CC1=C(C(=O)NCCC(c2ccccc2)c2ccccc2)C(c2ccc(Cl)c(Cl)c2)N=C(c2cccnc2)N1 (stereo not shown) [Example 64, 4-(3,4-dichlorophenyl)-6-methyl-2-pyridine-3-yl-1,4-dihydropyrimidine-5-carboxylic acid (3,3-diphenylpropyl)amide] | – | 1.26 |
| CC1=C(C(=O)NCCC(c2ccccc2)c2ccccc2)C(c2cccc(Cl)c2)N=C(c2ccccc2)N1 (stereo not shown) [Example 67, 4-(3-chlorophenyl)-6-methyl-2-phenyl-1,4-dihydro-pyrimidine-5-carboxylic acid (3,3-diphenylpropyl)amide] | – | 1.58 |
| CC1=C(C(=O)NC/C=C/c2ccccc2)C(c2cccc(Cl)c2)N=C(c2ccccc2)N1 (stereo not shown) [Example 68, 4-(3-chlorophenyl)-6-methyl-2-phenyl-1,4-dihydropyrimidine-5-carboxylic acid (3-phenyl-2-propene-1-yl)amide] | – | 1.26 |
| CC1=C(C(=O)NC/C=C/c2ccccc2)C(c2ccc(Cl)c(Cl)c2)N=C(c2ccccc2)N1 (stereo not shown) [Example 75, 4-(3,4-dichlorophenyl)-6-methyl-2-phenyl-1,4-dihydropyrimidine-5-carboxylic acid (3-phenyl-2-propene-1-yl)amide] | – | 2 |

Source: patent publication US6855716B2, “Dihydropyrimidine compounds and compositions containing the same” (Ajinomoto Co., Inc., priority 1999, dated 2005)
